Data published in patent US20210085801A1, “A[…] COPOLYMERS, […], AND METHODS FOR TREATING OR […] FAILURE” (CARDIOL THERAPEUTICS INC., priority 2017, published 2021).

Experiments:
[1] = Pharmacokinetic animal study, subcutaneous injection; settings: SC, single dose 10 mg/kg, rats, plasma CBD
Procedure: Cannulated adult male Sprague-Dawley rats were used for the pharmacokinetic experiments.
Rats were divided into 2 groups (n=4/group). Groups 1 and 2 received CBD either encapsulated in PEO-PBCL23 (referred to herein as Micellar CBD (DP 23)) or in free form (CBD dissolved in polyethylene glycol 400 (also referred to as PEG 400)). The administration was by way of subcutaneous injection in the right flank. A single dose of 10 mg/kg was administered to the rats of all groups.
Serial blood samples (200 μL) were collected using jugular vein catheters prior to CBD administration and at 0.25, 0.5, 0.75, 1, 2, 4, 6, 12 and 24, 48 and 72 hours post CBD administration. Plasma was separated (by using a centrifuge) from the samples and kept at −20° C. until it was analyzed for drug content.
100 μL of plasma samples were analyzed for CBD content as follows. The samples were spiked with internal standard (CBD d3 1 μg/mL) and 400 μL of cold acetonitrile was added to each sample. The mixture was vortexed for 1 minute and then 400 μL of water was added and the resulting mixture was further vortexed for 1 minute. Then 4 mL n-Hexane was added and the resulting mixture further vortexed for 5 minutes. The samples were centrifuged at 1160×g for 15 minutes and the organic phase layers were separated and transferred to clean tubes and evaporated to dryness. The residue was then analyzed for CBD content using a liquid chromatography-mass spectrometry (LC-MS) method involving the use of a Waters Quattro Micro triple quadrupole mass spectrometer. The residue samples were ran in MRM mode using the 315 to 193 transition for CBD, 318 to 196 for Cannabidiol-D3 solution and 311 to 223 for Cannabinol (CBN). A C18 Agilent Poroshell 120 EC column (2.1×50 mm; 2.7 μm particles) was used. The mobile phase consisted of 0.1% formic acid in HPLC-grade water (Solution A) and 0.1% formic acid in HPLC-grade acetonitrile (Solution B). A gradient elution was programmed to co33mmence with 40% Solution B for post-injection followed by gradual increase in 3 min. of Solution B to 95%. […] The flow rate was 0.3 mL/min. and 2 μL was injected. The lowest limit of quantification was set at 10 ng/mL.
The total amount of CBD that entered the bloodstream (AUC0-t; 72 h) was calculated using the trapezoidal rule from 0 to the last measured plasma concentration (Clast). The terminal elimination rate constant (β) was estimated using the linear least square regression of the log-linear phase of the concentration-time. Cmax and Tmax were the highest observed concentration and corresponding sampling time point.

[2] = In vitro release study (dialysis bag, 4% BSA); format: physicochemical; settings: dialysis bag in 300 mL 4% BSA, 37° C.
Procedure: An in vitro release study was performed to determine the in vitro release characteristic of free CBD and the above micelle encapsulated CBD formulations (Micellar CBD (DP 23) and d Micellar CBD (DP 15)).
Each of three formulations shown in Table 4 having equal concentrations of CBD were placed in separate Spectra/Por dialysis bags (molecular weight cut-off=12,000-14,000 g mol-1). The dialysis bags were sealed with clips and placed in a beaker with 300 mL 4% bovine serum albumin (BSA), then in a 37° C. shaker. At time 0 and 24 hours, the volume within each bag was measured, and a sample of each solution was taken from inside the dialysis bag and quantified by HPLC. The protocol that was used is described in Aliabadi et al, Journal of Controlled Release (2005) 104 (2), 301-311, which protocol is incorporated herein by reference.

SMILES: C=C(C)[C@@H]1CCC(C)=C[C@H]1c1c(O)cc(CCCCC)cc1O [Free-CBD, Cannabidiol]
- AUC0-6 [1]: 209.45 ± 210.52 ng·h/mL
- AUC0-72 h [1]: 687.12 ± 217.39 ng·h/mL
- Cmax [1]: 94 ± 86.27 ng/mL
- tmax [1]: 9 ± 10.13 h
- % CBD released after 24 hours [2]: rapid release
- % CBD released after 24 hours ([2]; listed as Free-CBD dissolved in acetonitrile): 70.65%
